The target of one test is RORγ (Homo sapiens (Human), UniProt P51449). The experiment in a line: RORγ Reporter Assay (Gal4). Particulars: HEK293 cells co-transfected with RORγ LBD-Gal4 and luciferase reporter; 24 h incubation; absolute IC50. It counts as cell-based. As for the experimental part:
The activity of the compounds was evaluated using a RORγ Reporter assay (also referred to as Gal4 assay). The Gal4 and the Th17 assays (another suitable assay) are both cell-based assays monitoring functional activity of the compound assayed. The HEK293 cell line is co-transfected transiently with two plasmids, one with the RORγ ligand-binding domain fused to galactose-responsive transcription factor (Gal4), and the other with the luciferase reporter gene and Gal binding sites (UAS). This construction allows to determine the RORγ activity in a cellular system through the measurement of luminescence. […] Media formulation consisted in DMEM/F-12 medium (Gibco) supplemented with 10% heat inactivated FBS (Sigma-Aldrich), non-essential aminoacids (Sigma-Aldrich), 2 mM Glutamax (Gibco) and 100 U/mL penicillin (Sigma-Aldrich). Dose-response curves with compounds were prepared in 100% DMSO and further diluted […] in culture medium. Compound solutions were added to the plate containing cells (final DMSO concentration of 0.1%) and incubated for 24 h at 37° C. and 5% CO2. Luciferase detection reagent was added to each well, and relative light units (RLUs) were quantified from each assay well using a plate reading luminometer. Values of average RLU±S.D. were computed for all treatment sets, followed by the calculations of percent-reduction of RORγ activity in response to respective test compound. The following formula was used: activity=100*[1−[x test compound/average vehicle where the theoretical minimum reduction (0% reduction).

A further test concerns plasma IL-17A. Description: In vivo IL-17A induction in anti-CD3 model in mice. The settings on record: male C57BL/6JRj mice, anti-CD3e induced plasma IL-17A, oral gavage twice daily day 0 to day 3, 3 mg/kg. As to the method: Compounds disclosed herein have also been evaluated in a mouse in vivo pharmacodynamic model (anti-CD3-induced plasma IL-17A).
Male C57BL/6JRj mice (7 week old) were purchased from Janvier Labs and housed at the animal facilities of Almirall throughout the study. Animals were allowed to condition for 5 days in their new environment at 22° C.±2° C., 55%±10% relative humidity and 12 h:12 h light:dark cycles. Animals were housed in polycarbonate cages, with free access to water and non-purified stock diet (2014 Teklad Global 14% Protein Rodent Maintenance Diet, Envigo) during the full course of the studies. […]
Mice were injected intraperitoneally with 7.5 μg of anti-CD3e (Clone 145-2C11 from Pharmingen BD) at 0 h (day 0) and 48 h (day 3) time-points. […] Plasma levels of IL-17A were measured by ELISA (R&D Systems) according to the manufacturer's instruction. Results were calculated as the percentage of reduction of plasma IL-17A versus the difference between non-induced and anti-CD3e induced groups through the formula: inhibition=100*[1−[(x−mean non-induced)/(mean control vehicle−mean non-induced)]]. The IL-17A inhibition for each treatment can be expressed as the mean for each treatment group±S.E.M. Statistical analysis of data were conducted with one-way ANOVA followed by Dunnett's multiple comparisons test when appropriate. […]

Chain of RORγ (P51449 269-508): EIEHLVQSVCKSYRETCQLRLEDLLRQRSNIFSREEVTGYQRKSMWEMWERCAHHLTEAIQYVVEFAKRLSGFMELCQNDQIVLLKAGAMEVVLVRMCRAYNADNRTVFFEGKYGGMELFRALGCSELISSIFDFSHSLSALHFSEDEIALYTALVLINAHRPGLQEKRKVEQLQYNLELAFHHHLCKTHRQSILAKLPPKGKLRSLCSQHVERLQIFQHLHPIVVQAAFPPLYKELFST

Regarding `CCN(C[C@H]1CC[C@H](C(F)(F)F)CC1)c1ncnc(NC[C@@]2(O)CCN(CC(N)=O)C[C@@H]2O)c1F` (single isomer, unassigned) [AD-6-2, 2-((3R*,4R*)-4-(((6-(ethyl(((1r,4R)-4-(trifluoromethyl)cyclohexyl)methyl)amino)-5-fluoropyrimidin-4-yl)amino)methyl)-3,4-dihydroxypiperidin-1-yl)acetamide], it took 15 nM to reach half-maximal inhibition on RORγ (IC50).
On to `CCN(C[C@H]1CC[C@H](C(F)(F)F)CC1)c1ncnc2c1ccn2C[C@]1(O)CCN(CC(N)=O)C[C@H]1O` (single isomer, unassigned) [BD-5-1-2, 2-((3R*,4R*)-4-((4-(ethyl(((1r,4R)-4-(trifluoromethyl)cyclohexyl)methyl)amino)-7H-pyrrolo[2,3-d]pyrimidin-7-yl)methyl)-3,4-dihydroxypiperidin-1-yl)acetamide], for which the IC50 against RORγ was found to be 4.3 nM.
`CCN(CC1CCC2(CC1)COC2)c1ncnc(NC[C@@H]2CCN(CC(N)=O)C[C@H]2O)c1F` (single isomer, unassigned) [Example A6-6-2] came in with an IC50 on RORγ of 980 nM.
The same measure, in the same setting: in the case of `CCN(CC1(F)CCC(C(F)(F)F)CC1)c1ncnc(NC[C@@H]2CCN(CC(N)=O)C[C@H]2O)c1F` (single isomer, unassigned) [Example A6-7-2] it was 69 nM; in that of `CCN(C[C@H]1CC[C@@]2(CC1)CC2(F)F)c1ncnc(NC[C@@H]2CCN(CC(N)=O)C[C@H]2O)c1F` (single isomer, unassigned) [Example A6-1-2-1], 49 nM.
Still for that read-out and setting: in the case of `NC(=O)CN1CC[C@@H](CNc2ncnc(N(C[C@H]3CC[C@H](C(F)(F)F)CC3)C3CCC3)c2F)[C@H](O)C1` (racemic) [Example A6-5, 2-((3RS,4RS)-4-(((6-(cyclobutyl(((1r,4R)-4-(trifluoromethyl)cyclohexyl)methyl)amino)-5-fluoropyrimidin-4-yl)amino)methyl)-3-hydroxypiperidin-1-yl)acetamide] it was 17 nM; in that of `CCN(CC1CCC2(CC1)CC2(F)F)c1ncnc(NC[C@H]2CCN(CC(N)=O)C[C@@H]2O)c1F` (relative stereo) [Example A6-1-1-2, rel-2-((3R,4R)-4-(((6-(((1,1-Difluorospiro[2.5]octan-6-yl)methyl)(ethyl)amino)-5-fluoropyrimidin-4-yl)amino)methyl)-3-hydroxypiperidin-1-yl)acetamide], 44 nM; in that of `CCN(C[C@H]1CC[C@H](C(F)(F)F)CC1)c1ncnc2c1ccn2C[C@]1(O)CCN(CC(N)=O)C[C@H]1O` (single isomer, unassigned) [BD-5-1-1, 2-((3R*,4R*)-4-((4-(ethyl(((1r,4R)-4-(trifluoromethyl)cyclohexyl)methyl)amino)-7H-pyrrolo[2,3-d]pyrimidin-7-yl)methyl)-3,4-dihydroxypiperidin-1-yl)acetamide], 3.3 nM.
The same measure, in the same setting: in the case of `CCN(CC1CCC2(CC1)COC2)c1ncnc(NC[C@@H]2CCN(CC(N)=O)C[C@H]2O)c1F` (single isomer, unassigned) [Example A6-6-1] it was 690 nM; in that of `CCN(CC1(F)CCC(C(F)(F)F)CC1)c1ncnc(NC[C@@H]2CCN(CC(N)=O)C[C@H]2O)c1F` (single isomer, unassigned) [Example A6-7-1], 43 nM.
With `CCN(C[C@H]1CC[C@H](C(F)(F)F)CC1)c1ncnc(NC[C@@]2(O)CCN(CC(N)=O)C[C@@H]2O)c1F` (single isomer, unassigned) [AD-6-1, 2-((3R*,4R*)-4-(((6-(ethyl(((1r,4R)-4-(trifluoromethyl)cyclohexyl)methyl)amino)-5-fluoropyrimidin-4-yl)amino)methyl)-3,4-dihydroxypiperidin-1-yl)acetamide], it took 1.2 nM to reach half-maximal inhibition against RORγ (IC50). In addition, the “Inhibition of IL-17A (%) at 3 mg/kg” value in the test on plasma IL-17A was 95%.
Regarding `CCN(C[C@H]1CC[C@]2(CC1)CC2(F)F)c1ncnc(NC[C@@H]2CCN(CC(N)=O)C[C@H]2O)c1F` (relative stereo) [Example A6-1-1-1, rel-2-((3R,4R)-4-(((6-(((1,1-Difluorospiro[2.5]octan-6-yl)methyl)(ethyl)amino)-5-fluoropyrimidin-4-yl)amino)methyl)-3-hydroxypiperidin-1-yl)acetamide], half-maximal inhibition against RORγ (IC50) required 35 nM.

These data come from patent US11613532B2, “Compounds active towards nuclear receptors” (NUEVOLUTION A/S, priority 2020, dated 2023).
